In assay [1] the test system is human tumor cell lines (HT29, MCF-7, HeLa, U2OS, and J6). In words: Antiproliferative activity in the series of human tumor cell lines. Type of assay: cell-based. To be noted: MTT; concentration range of 10–500 nM. The procedure:
(§1) The human colorectal adenocarcinoma (Caco-2), human colorectal adenocarcinoma (HT29), normal human intestinal (I407), human cervical cancer (HeLa), human breast cancer (MCF7), human bone osteosarcoma (U2OS), and human acute T-cell leukemia (Jurkat J6) cell lines were purchased from American Type Culture Collection (ATCC, Manassas, VA, USA). Cells were cultured in RPMI 1640 medium (Labtek Eurobio, Milan, Italy), supplemented with 10% FCS (Euroclone, Milano, Italy) and 2 mM L-glutamine (Sigma-Aldrich, Milano, Italy), at 37 °C and in a 5% CO2 atmosphere. The compounds were dissolved in DMSO in a 30–40 mM stock solution. In cell treatments, the final DMSO concentration never exceeded 0.1%.
(§2) Cells were seeded in a 96-well culture plastic plate (Sarsted, Milan, Italy), at 5 × 10^4 cells/well and, after 24 h, were exposed to increasing concentrations of the different compounds (from 1 nM to 500 nM) dissolved in RPMI 1640 medium. An MTT assay was performed according to Micheletti et al..
(§3) The absorbance at 570 nm was measured using a multi-well plate reader (Tecan, Männedorf, Switzerland), and data were analyzed by Prism GraphPad 8 software and expressed as IC50 nM.

For another assay, the system named is HeLa. Briefly: MTT assay, HeLa cells. The format is cell-based. To be noted: Homo sapiens, means of four experiments, na = not active, read-out: In vitro cytotoxic activity (IC50), HeLa. Here is the method:
as §1, §2, §3

Another assay deals with HT29. In words: MTT assay, HT29 cells. The format is cell-based, human. To be noted: Homo sapiens, HT-29; MTT; means of four experiments; na = not active; read-out: In vitro cytotoxic activity (IC50), HT29. The procedure: as §1, §2, §3
(Tetrazolium dyes change colour on reduction, which living cells bring about.)

In another assay the test system is U2OS. Briefly: MTT assay, U2OS cells. Type of assay: cell-based. To be noted: Homo sapiens, means of four experiments, na = not active, read-out: In vitro cytotoxic activity (IC50), U2OS. The procedure: as §1, §2, §3
In assay [2] the test system is histones H2/H3 and H4 of HT29 cells. On the set-up: method as in PMID 15716589, PMID 22814230. To be noted: cited from earlier work.
For a further assay, the system named is HT29 cells. On the set-up: method as in PMID 14715257, PMID 22814230. To be noted: cited from earlier work.
Another assay concerns J6. In words: MTT assay, Jurkat J6 cells. Type of assay: cell-based. To be noted: Homo sapiens, means of four experiments, na = not active, read-out: In vitro cytotoxic activity (IC50), J6. Here is the method: as §1, §2, §3
The next assay concerns MCF7. Briefly: MTT assay, MCF7 cells. Type of assay: cell-based. To be noted: Homo sapiens, means of four experiments, na = not active, read-out: In vitro cytotoxic activity (IC50), MCF7. The procedure:
as §1, §2, §3

The subject of assay [3] is histone deacetylase HDAC1. On the set-up: method as in PMID 14715257, PMID 15716589, PMID 16702808, PMID 17234448, PMID 22814230. To be noted: cited from earlier work.

`CCCCCCCCC(O[Si](C)(C)C(C)(C)C)C(CCCCCCCC(=O)OC)O[Si](C)(C)C(C)(C)C` (racemic) [Compound 10, Rac-erythro-methyl 9,10-bis((tert-butyldimethylsilyl)oxy)octadecanoate]: the “antitumor activity across all cell lines tested” value in [1] was “no activity”.

One may read the IC50 as the concentration that inhibits the measured activity by half. Regarding `CCCCCCCCC(O[Si](C)(C)C(C)(C)C)C(CCCCCCCC(=O)O)O[Si](C)(C)C(C)(C)C` (racemic) [Compound 13, Rac-erythro-9,10-bis((tert-butyldimethylsilyl)oxy)octadecanoic Acid], the IC50 is 131.8 ± 0.21 nM in the assay with HeLa, 25.3 ± 0.27 nM in the assay with HT29 and 41.95 ± 0.29 nM in the assay on U2OS. In addition, the “antitumor activity across all cell lines tested” value in [1] is on record as “showed antitumor activity”.

As to `CCCCCCCCC[C@@H](O)CCCCCCCC(=O)O` [(R)-9-HSA, (R)-9-hydroxystearic acid], the “histone acetylation (free acid)” value in assay [2] was “induces hyperacetylation of histone H4”. In addition, in the assay with HT29 cells, the “concentration inducing the same effect on the cell cycle (G0/G1 arrest)” value was 50 µM.

Take `CCCCCCCCC[C@H](CCCCCCCC(=O)OC)O[Si](C)(C)C(C)(C)C` [Compound 3, Methyl (R)-9-((tert-butyldimethylsilyl)oxy)octadecanoate]: the IC50 amounted to 133.7 ± 0.32 nM in the assay with HeLa; 84.76 ± 0.1 nM in the assay with HT29; 151.6 ± 0.31 nM in the assay with J6; 29.33 ± 0.23 nM in the assay on U2OS; 134 ± 0.27 nM in the assay on MCF7. Also, the “antitumor activity across all cell lines tested” value in [1] is recorded as “showed antitumor activity”.

Regarding `CCCCCCCCCC(O)CCCCCCCC(=O)O` (stereo not drawn) [Compound 9-HSA, 9-hydroxystearic acid], the “inhibition of histone deacetylase HDAC1” value in assay [3] is recorded as “selectively inhibits”. Also, the “concentration inducing the same effect on the cell cycle (G0/G1 arrest)” value with HT29 cells is 100 µM.

(Values after paper PMC11820896, “New Compounds with Enhanced Biological Activity Through the Strategic Introduction of Silylated Groups into Hydroxystearic Acids” (Molecules, 2025).)
